Measurements reported in article PMC4979471 (Cell Death Discovery, 2015).
Like-named read-outs stand apart in the source and are kept apart here.

What was measured:
Assay in all cases: Kinase selectivity, P33-radiolabeled assay
Assay type in all cases: biochemical
Conditions in all cases: 10 μM ATP
RAF1 = target: T1, RAF1 (Homo sapiens, UniProt P04049)
T1 construct: purchased Reaction Biology Corp
Description: (§1) The compound was tested at a single dose in duplicate at 10 μM. Reactions were carried out at 10 μM ATP. Data are reported as % enzyme activity (relative to DMSO controls). The full data set is shown in the Supplementary Table I.

HIPK4 = target: T2, HIPK4 (Homo sapiens, UniProt Q8NE63)
T2 construct: purchased Reaction Biology Corp
T2 sequence (Q8NE63 1-616): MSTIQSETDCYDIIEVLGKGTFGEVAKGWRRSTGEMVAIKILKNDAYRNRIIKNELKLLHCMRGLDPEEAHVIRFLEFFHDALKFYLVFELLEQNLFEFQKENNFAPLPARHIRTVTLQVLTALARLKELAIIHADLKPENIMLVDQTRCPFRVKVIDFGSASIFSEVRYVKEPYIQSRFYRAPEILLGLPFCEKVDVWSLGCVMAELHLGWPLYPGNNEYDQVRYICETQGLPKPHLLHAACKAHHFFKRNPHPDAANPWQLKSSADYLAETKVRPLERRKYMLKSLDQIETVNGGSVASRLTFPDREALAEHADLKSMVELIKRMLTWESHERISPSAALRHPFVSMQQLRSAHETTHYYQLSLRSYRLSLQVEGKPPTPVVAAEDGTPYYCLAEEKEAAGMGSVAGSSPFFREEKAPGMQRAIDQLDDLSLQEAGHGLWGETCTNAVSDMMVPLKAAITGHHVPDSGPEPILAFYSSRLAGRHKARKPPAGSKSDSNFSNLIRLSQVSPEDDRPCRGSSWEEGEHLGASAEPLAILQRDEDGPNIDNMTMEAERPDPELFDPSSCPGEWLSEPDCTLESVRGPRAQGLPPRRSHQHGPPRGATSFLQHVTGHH
Description: as §1

HIPK3 = target: T3, HIPK3 (Homo sapiens, UniProt Q9H422)
T3 construct: purchased Reaction Biology Corp
T3 sequence (Q9H422 whole entry): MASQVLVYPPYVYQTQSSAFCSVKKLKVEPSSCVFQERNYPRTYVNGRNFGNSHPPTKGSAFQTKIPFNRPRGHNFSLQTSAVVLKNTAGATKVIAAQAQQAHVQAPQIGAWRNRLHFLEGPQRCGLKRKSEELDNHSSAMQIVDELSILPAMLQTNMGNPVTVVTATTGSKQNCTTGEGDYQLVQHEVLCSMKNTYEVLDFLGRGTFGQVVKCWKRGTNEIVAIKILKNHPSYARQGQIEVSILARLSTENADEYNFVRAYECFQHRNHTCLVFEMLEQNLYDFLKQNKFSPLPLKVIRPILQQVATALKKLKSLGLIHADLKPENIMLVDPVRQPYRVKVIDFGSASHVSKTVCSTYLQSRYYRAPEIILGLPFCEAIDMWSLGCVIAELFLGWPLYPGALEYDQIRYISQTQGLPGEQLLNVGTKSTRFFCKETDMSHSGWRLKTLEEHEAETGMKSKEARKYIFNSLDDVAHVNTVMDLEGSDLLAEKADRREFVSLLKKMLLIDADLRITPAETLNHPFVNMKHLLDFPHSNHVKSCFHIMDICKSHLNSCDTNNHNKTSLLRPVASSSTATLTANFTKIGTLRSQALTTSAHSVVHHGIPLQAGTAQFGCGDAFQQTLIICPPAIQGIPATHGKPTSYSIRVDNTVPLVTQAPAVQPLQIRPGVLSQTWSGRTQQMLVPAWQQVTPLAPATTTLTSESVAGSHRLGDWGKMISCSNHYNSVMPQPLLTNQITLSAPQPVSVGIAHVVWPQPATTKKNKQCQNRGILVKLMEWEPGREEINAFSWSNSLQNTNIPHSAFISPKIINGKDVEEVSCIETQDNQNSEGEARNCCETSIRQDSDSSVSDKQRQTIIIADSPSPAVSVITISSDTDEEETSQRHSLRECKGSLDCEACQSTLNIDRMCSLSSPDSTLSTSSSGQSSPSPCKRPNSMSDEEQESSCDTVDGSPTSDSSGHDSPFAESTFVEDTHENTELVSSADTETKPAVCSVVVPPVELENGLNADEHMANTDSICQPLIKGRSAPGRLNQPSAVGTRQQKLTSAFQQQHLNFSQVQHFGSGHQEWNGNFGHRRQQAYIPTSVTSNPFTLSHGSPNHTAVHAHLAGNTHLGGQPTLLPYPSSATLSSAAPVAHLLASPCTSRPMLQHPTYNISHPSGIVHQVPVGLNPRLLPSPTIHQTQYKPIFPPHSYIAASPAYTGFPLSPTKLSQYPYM
Description: as §1

MLCK2/MYLK2 = target: T4, MLCK2/MYLK2 (Homo sapiens, UniProt Q9H1R3)
T4 construct: purchased Reaction Biology Corp
Description: as §1

PBK/TOPK = target: T5, PBK/TOPK (Homo sapiens, UniProt Q96KB5)
T5 construct: purchased Reaction Biology Corp
T5 sequence (Q96KB5 1-322): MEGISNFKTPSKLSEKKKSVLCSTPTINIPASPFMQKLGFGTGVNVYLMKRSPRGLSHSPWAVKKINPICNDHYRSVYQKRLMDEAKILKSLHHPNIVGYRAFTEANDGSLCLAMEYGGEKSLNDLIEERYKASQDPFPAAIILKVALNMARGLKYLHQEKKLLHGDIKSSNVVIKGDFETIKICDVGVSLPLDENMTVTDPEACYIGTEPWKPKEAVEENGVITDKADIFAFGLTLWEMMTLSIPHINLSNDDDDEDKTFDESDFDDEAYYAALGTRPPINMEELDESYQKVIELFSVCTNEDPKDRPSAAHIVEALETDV
Description: as §1

CSK = target: T6, CSK (Homo sapiens, UniProt P41240)
T6 construct: purchased Reaction Biology Corp
T6 sequence (P41240 whole entry): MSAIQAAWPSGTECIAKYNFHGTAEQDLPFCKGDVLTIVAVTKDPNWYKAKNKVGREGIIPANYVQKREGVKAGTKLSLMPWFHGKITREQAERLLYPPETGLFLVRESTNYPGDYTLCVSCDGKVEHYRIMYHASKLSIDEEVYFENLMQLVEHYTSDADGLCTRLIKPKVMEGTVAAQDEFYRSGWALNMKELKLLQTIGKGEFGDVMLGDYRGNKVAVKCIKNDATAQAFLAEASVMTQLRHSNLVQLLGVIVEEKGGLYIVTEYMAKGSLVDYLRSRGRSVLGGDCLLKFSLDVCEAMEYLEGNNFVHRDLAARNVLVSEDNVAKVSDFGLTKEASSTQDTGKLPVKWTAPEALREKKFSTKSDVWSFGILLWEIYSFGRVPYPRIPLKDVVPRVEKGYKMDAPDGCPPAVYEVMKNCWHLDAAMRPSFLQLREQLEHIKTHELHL
Description: as §1

MRCKa/CDC42BPA = target: T7, MRCKa/CDC42BPA (Homo sapiens, UniProt Q5VT25)
T7 construct: purchased Reaction Biology Corp
Description: as §1

OSR1/OXSR1 = target: T8, OSR1/OXSR1 (Homo sapiens, UniProt O95747)
T8 construct: purchased Reaction Biology Corp
T8 sequence (O95747 whole entry): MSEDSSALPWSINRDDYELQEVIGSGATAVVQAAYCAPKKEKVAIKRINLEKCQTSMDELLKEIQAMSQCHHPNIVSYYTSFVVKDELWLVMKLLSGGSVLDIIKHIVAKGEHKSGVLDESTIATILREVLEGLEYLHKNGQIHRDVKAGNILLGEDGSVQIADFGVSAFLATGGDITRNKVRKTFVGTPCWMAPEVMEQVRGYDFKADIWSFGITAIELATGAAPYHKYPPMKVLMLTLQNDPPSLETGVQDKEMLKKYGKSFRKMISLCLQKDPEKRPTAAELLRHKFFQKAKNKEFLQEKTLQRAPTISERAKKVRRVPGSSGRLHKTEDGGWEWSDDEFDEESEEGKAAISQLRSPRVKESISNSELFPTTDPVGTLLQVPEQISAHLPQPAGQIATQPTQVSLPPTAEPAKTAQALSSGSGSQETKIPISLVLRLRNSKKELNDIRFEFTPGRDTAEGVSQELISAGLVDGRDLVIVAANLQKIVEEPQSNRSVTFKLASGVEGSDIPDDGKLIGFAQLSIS
Description: as §1

NEK4 = target: T9, NEK4 (Homo sapiens, UniProt P51957)
T9 construct: purchased Reaction Biology Corp
T9 sequence (P51957 whole entry): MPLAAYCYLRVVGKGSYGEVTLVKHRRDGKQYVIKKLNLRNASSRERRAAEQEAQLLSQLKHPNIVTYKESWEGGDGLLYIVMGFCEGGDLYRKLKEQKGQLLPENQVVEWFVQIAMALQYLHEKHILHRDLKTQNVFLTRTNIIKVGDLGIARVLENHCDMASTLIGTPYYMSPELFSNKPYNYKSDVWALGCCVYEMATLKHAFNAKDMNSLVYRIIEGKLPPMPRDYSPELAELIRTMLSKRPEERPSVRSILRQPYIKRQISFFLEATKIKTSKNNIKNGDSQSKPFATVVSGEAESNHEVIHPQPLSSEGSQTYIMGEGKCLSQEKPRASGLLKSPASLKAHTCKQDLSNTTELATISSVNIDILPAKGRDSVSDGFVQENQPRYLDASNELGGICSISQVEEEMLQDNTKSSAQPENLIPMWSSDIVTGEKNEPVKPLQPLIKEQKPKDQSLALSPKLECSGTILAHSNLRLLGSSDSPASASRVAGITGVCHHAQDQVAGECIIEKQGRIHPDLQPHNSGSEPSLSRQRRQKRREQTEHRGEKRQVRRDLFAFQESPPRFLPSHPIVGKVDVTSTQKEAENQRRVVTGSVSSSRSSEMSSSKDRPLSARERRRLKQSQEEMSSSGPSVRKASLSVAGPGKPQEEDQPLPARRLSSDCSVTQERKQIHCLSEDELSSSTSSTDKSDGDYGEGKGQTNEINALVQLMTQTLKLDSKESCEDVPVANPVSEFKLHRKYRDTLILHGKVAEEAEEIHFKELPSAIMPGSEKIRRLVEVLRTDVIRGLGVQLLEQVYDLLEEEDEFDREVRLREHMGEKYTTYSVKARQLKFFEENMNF
Description: as §1

TRKB = target: T10, TRKB (Homo sapiens, UniProt Q16620)
T10 construct: purchased Reaction Biology Corp
T10 sequence (Q16620 32-822): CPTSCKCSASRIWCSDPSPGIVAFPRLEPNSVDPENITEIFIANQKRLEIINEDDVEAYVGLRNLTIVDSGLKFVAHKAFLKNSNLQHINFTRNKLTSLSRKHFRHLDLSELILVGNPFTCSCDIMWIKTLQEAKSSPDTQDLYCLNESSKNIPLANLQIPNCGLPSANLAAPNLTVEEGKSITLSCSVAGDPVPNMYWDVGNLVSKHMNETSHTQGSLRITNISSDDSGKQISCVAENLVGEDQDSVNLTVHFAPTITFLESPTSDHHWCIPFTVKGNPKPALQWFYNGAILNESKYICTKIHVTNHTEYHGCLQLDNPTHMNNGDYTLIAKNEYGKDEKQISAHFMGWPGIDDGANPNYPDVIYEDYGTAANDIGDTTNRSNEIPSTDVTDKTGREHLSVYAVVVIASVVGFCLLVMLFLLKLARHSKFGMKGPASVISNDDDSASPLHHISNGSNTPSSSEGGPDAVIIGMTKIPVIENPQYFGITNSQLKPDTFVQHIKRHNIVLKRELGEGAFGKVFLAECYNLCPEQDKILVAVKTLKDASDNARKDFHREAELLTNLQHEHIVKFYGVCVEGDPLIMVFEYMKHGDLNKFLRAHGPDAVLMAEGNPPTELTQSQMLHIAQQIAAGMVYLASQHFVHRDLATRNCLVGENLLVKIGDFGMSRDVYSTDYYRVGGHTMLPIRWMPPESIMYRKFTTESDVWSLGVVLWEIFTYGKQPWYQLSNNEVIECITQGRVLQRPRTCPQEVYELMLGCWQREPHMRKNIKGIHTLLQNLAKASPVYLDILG
Description: as §1

TYRO3/SKY = target: T11, TYRO3/SKY (Homo sapiens, UniProt Q06418)
T11 construct: purchased Reaction Biology Corp
T11 sequence (Q06418 41-890): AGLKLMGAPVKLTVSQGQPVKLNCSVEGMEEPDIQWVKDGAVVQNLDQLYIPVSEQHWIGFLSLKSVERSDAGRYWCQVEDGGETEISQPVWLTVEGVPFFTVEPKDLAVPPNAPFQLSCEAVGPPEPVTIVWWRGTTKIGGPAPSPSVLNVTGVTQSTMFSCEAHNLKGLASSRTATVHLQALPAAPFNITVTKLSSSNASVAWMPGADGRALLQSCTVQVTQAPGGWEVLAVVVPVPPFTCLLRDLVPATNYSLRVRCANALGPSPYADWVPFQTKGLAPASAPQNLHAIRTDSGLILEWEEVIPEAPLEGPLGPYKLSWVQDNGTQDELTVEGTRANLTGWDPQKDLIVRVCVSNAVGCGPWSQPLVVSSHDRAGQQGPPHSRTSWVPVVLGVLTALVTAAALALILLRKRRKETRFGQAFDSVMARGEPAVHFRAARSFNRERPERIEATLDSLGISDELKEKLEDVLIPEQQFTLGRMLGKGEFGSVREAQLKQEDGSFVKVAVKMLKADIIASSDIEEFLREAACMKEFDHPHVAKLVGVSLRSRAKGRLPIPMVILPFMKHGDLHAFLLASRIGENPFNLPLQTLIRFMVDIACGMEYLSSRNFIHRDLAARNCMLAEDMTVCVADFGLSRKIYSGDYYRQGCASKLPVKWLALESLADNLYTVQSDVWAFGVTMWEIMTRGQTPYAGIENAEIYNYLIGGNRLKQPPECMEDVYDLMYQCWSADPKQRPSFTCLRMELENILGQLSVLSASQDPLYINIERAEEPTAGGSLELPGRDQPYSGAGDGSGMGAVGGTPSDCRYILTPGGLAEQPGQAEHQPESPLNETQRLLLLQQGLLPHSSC
Description: as §1

[1] = read-out: % Enzyme Activity (relative to DMSO controls) AVG
[2] = read-out: % Enzyme Activity (relative to DMSO controls) Data 1
[3] = read-out: % Enzyme Activity (relative to DMSO controls) Data 2

T1 sequence (P04049 whole entry): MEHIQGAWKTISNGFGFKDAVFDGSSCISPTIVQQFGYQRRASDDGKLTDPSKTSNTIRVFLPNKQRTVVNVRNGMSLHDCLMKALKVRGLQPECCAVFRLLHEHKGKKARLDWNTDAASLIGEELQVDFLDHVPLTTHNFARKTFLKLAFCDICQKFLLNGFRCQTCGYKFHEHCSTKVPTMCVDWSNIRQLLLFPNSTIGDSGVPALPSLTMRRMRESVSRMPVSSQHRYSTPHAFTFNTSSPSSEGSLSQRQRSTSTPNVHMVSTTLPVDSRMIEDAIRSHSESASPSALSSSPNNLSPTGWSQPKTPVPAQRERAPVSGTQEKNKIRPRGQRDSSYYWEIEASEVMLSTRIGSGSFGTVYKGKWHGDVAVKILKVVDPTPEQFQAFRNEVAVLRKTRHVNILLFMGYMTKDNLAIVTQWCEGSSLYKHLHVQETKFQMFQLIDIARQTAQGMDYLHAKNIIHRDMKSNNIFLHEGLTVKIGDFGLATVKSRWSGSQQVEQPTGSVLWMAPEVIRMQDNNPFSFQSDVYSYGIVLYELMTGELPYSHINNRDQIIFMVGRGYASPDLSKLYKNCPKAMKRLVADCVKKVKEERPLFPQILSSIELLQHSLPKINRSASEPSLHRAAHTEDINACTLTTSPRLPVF

Compound `CC(C)(C)C(=O)N1N=CC[C@H]1c1ccccc1` [GSK′963] has a remaining activity at 10 µM (RAF1; [1]) of 93.7%, a remaining activity at 10 µM (RAF1; [2]) of 94.8% and a remaining activity at 10 µM (RAF1; [3]) of 92.7%. The remaining activity at 10 µM (HIPK4; [1]) was 99.5%, the remaining activity at 10 µM (HIPK4; [2]) was 96.7% and the remaining activity at 10 µM (HIPK4; [3]) was 102%. The remaining activity at 10 µM (HIPK3; [1]) was 100%, the remaining activity at 10 µM (HIPK3; [2]) was 100% and the remaining activity at 10 µM (HIPK3; [3]) was 101%. It also gave a remaining activity at 10 µM (MLCK2/MYLK2; [1]) of 104%, a remaining activity at 10 µM (MLCK2/MYLK2; [2]) of 106% and a remaining activity at 10 µM (MLCK2/MYLK2; [3]) of 102%. The remaining activity at 10 µM (PBK/TOPK; [1]) was 104%, the remaining activity at 10 µM (PBK/TOPK; [2]) was 103% and the remaining activity at 10 µM (PBK/TOPK; [3]) was 105%. It also gave a remaining activity at 10 µM (CSK; [1]) of 104%, a remaining activity at 10 µM (CSK; [2]) of 104% and a remaining activity at 10 µM (CSK; [3]) of 103%. For the same compound, the remaining activity at 10 µM (MRCKa/CDC42BPA; [1]) was 111%, the remaining activity at 10 µM (MRCKa/CDC42BPA; [2]) was 110% and the remaining activity at 10 µM (MRCKa/CDC42BPA; [3]) was 112%. It also gave a remaining activity at 10 µM (OSR1/OXSR1; [1]) of 120%, a remaining activity at 10 µM (OSR1/OXSR1; [2]) of 127% and a remaining activity at 10 µM (OSR1/OXSR1; [3]) of 112%. It also gave a remaining activity at 10 µM (NEK4; [1]) of 102%, a remaining activity at 10 µM (NEK4; [2]) of 102% and a remaining activity at 10 µM (NEK4; [3]) of 102%. It also gave a remaining activity at 10 µM (TRKB; [1]) of 101%, a remaining activity at 10 µM (TRKB; [2]) of 101% and a remaining activity at 10 µM (TRKB; [3]) of 100%. The remaining activity at 10 µM (TYRO3/SKY; [1]) was 97.2%, the remaining activity at 10 µM (TYRO3/SKY; [2]) was 97.1% and the remaining activity at 10 µM (TYRO3/SKY; [3]) was 97.3%.
